Test results published in patent publication US20220088031A1, “METHODS AND COMPOSITIONS FOR TREATING RESISTANT AND RECURRENT FORMS OF CANCER” (Health Research, Inc., priority 2019, published 2022).
“Also recorded” adds a separate entry of the source.

Assays:
Type in all cases: cell-based, human
[1] = test system: E006AA cells; test: Caspase-3 (DEVDase) activity assay
Protocol: Caspase-3 (DEVDase) activity assay: PCa cell lysates prepared in NP40 lysis buffer were incubated with DEVD-AFC (caspase-3 substrate) at 37° C. for 90 min in caspase activity assay buffer (50 mM HEPES pH 7.4, 150 mM NaCl, 1% CHAPS, 1 mM EDTA, 1 mM DTT, 50% glycerol). Fluorescence intensity was detected using a Synergy microplate reader at excitation and emission wavelengths of 400 nm and 508 nm, respectively. Arbitrary fluorescence units were normalized with protein content of cell lysates and represented as fold change compared to control groups.

[2] = test system: E006AA cells; test: Immunoblot analysis of CC, cleaved PARP and cleaved caspase-3 in whole cell lysates; conditions: for CC expression: combined treatment with DOC (10 nM, 24 hrs), c-Myc I 75 μM, NF-κB I 50 μM, AKT Act 5 μM
Protocol: (§1) Immunoblotting: Immunoblotting was performed as described previously. Protein lysates were prepared using a lysis in NP-40 buffer (50 mM Tris-HCl pH 7.4, 150 mM NaCl, 1 mM EDTA, 1 mM EGTA, 1% NP-40) supplemented with protease and phosphatase inhibitor cocktail. Protein content was quantified using a micro BCA protein estimation kit (Thermo Scientific, Waltham, Mass.; Cat #23235). Protein samples were resolved on 4-20% Criterion gels, transferred on nitrocellulose membranes (BioRad, Hercules, Calif.) and subjected to immunoblotting. Membranes were blocked in 5% fat free dry milk (Blotto, Santa Cruz, Dallas, Tex.; Cat #sc-2324) prepared in PBS-T (Tween-20) and incubated overnight in primary antibodies (1:1000 dilution) at 4° C. with continuous shaking. After washing with PBS-T, membranes were incubated in HRP conjugated anti-mouse or anti-rabbit secondary antibody at room temperature for 1 hr. After washing with PBS-T, proteins were detected using Clarity chemiluminescent reagent (BioRad, Hercules, Calif.; Cat #1705061) and X-Ray films (ASI, Fort Lauderdale, Fla.; Cat #XR1570). Membranes were stripped using stripping buffer and probed with HRP conjugated beta-actin antibody to ensure equal loading of proteins.

[3] = test system: Nrf1 nuclear translocation in E006AA cells; test: Immunoblot analysis of Nrf1 in cytosolic and nuclear fractions
Protocol: as §1, with “Subcellular fractionation for the preparation of cytosolic and nuclear fractions: Cells were seeded on 10 cm cell culture plates for treatment. Cells were harvested via gently scraping. Cells were collected using centrifugation and washed twice with ice cold PBS. Cells were resuspended in cytosolic buffer (10 mM HEPES, pH 7.4; 10 mM KCl; 0.1 mM EDTA; 0.1 mM EGTA) supplemented with freshly added 1× protease inhibitor cocktail and 1 mM DTT. Cells were incubated in cytosolic buffer for 15 min in ice and 10% NP40 was added (12.4 μl 10% NP40 per 200 μl volume of cytosolic buffer) followed by vigorous vortexing for 45 sec. Cell homogenates were centrifuged at 14000 rpm for 2 min. The supernatant was collected in new tubes and stored as the cytosolic fraction. The nuclear pellet was washed 3 times with cytosolic buffer and lysed in nuclear lysis buffer (10 mM HEPES, 500 mM NaCl, 1 mM EDTA, 1 mM EGTA, 1% NP40) to prepare nuclear extract. Immunoblotting:” for “Immunoblotting:”

[4] = test system: CC promoter activity in E006AA cells; test: Cytochrome c (CYCS) promoter reporter (luciferase) assay; conditions: CYCS-Luc transfected cells, 24 hrs
Protocol: Cytochrome c (CYCS) promoter reporter assay: CYCS promoter reporter clone and empty pLightSwitch vector were purchased from SwitchGear Genomics, Menlo Park, Calif. (Cat #S721763). The reporter construct was prepared by cloning −1000 bp of CYCS promoter from the transcription initiation site. Plasmids were transformed in DH5a E. Coli strain and were isolated using a Zymo Plasmid MidiPrep kit (Zymo research, cat #D4200). The Nrf1 binding site in the p-CYCS-SwichGear-Luc construct was deleted using a QuickChange II XL site-directed mutagenesis kit (Agilent Technologies, Wilmington, Del. Cat #200521). LNCaP and E006AA cells were seeded in 96 well plates and transfected with either pLightSwitch empty vector or CYCS promoter reporter clones using a lipofectamine 3000 transfection kit (ThermoFisher Scientific, Waltham, Mass.). Cells were harvested after 48 hrs. Luciferase activity assay was performed using LightSwitch Assay Reagent (SwitchGear Genomics, Menlo Park, Calif. Cat #LS010).

[5] = test system: E006AA cells; test: Immunoblot analysis of CC in cytosolic and mitochondrial fractions; conditions: in combination with DOC (24 hrs)
Protocol: Subcellular fractionation for the preparation of cytosolic and mitochondrial fractions: Cells were seeded on 15 cm cell culture plates followed by treatment with various compounds for the preparation of cytosolic and mitochondrial fractions as described. Cells were harvested via gentle scraping, washed twice with ice cold 1×PBS, and resuspended in homogenization buffer (20 mM HEPES, pH 7.4; 10 mM KCl; 1.5 mM MgCl2; 1 mM EDTA; 1 mM EGTA; 250 mM sucrose) supplemented with freshly added 1× protease inhibitor cocktail and 1 mM DTT. Cells were incubated in homogenization buffer for 30 min in ice and homogenized using a dounce homogenizer (˜25 strokes using pestle A). Cell homogenates were pre-cleared of unbroken cells and debris using centrifugation at 1000 g for 10 min. The supernatant was collected in new tubes and centrifuged at 12000 rpm for 20 min to obtain a mitochondrial pellet, which was washed 3 times with homogenization buffer and lysed in NP40 buffer, and stored as the mitochondrial fraction. The supernatant was ultra-centrifuged to obtain purified cytosol.
as §1

[6] = test system: p-Drp1^S616 in E006AA cells; test: Immunoblot analysis of p-Drp1^S616 and Drp1; conditions: AA PCa cells; c-Myc I 75 μM, NF-κB I 50 μM, AKT Act 5 μM
Protocol: as §1

[7] = combined treatment with DOC (24 hrs)

| Compound | caspase-3 activation ([1]; agent alone) | caspase-3 activation [1, 7] | PARP cleavage ([2]; agent alone) | CC expression [2] | PARP cleavage [2, 7] | translocation of Nrf1 to nucleus ([3]; agent alone) | translocation of Nrf1 to nucleus ([3]; combined with DOC (24 hrs)) | CYCS promoter activity (luciferase) [4] | CC release [5] | levels of p-Drp1^S616 [6] |
| --- | --- | --- | --- | --- | --- | --- | --- | --- | --- | --- |
| Cc1ccc(NCCCc2ccccc2)c(N)c1 [NF-κB inhibitor, JSH-23] | only a modest increase | increased caspase-3 activation | only a modest increase | Increased CC expression | PARP cleavage | Enhanced translocation of Nrf1 to nucleus | Enhanced translocation of Nrf1 to nucleus | increased the CYCS promoter activity | resulted in CC release | increased the levels of p-Drp1^S616 |
| CCc1ccc(/C=C2/SC(=S)NC2=O)cc1 [c-Myc inhibitor, 10058-F4] | only a modest increase | increased caspase-3 activation | only a modest increase | Increased CC expression | PARP cleavage | Enhanced translocation of Nrf1 to nucleus | Enhanced translocation of Nrf1 to nucleus | increased the CYCS promoter activity | CC release only in combination treatment; also recorded: resulted in CC release | increased the levels of p-Drp1^S616 |
| bisperoxovanadium 5-hydroxipyridine [AKT activator] | only a modest increase | increased caspase-3 activation | only a modest increase | Increased CC expression | PARP cleavage | Enhanced translocation of Nrf1 to nucleus | Enhanced translocation of Nrf1 to nucleus | increased the CYCS promoter activity | CC release only in combination treatment; also recorded: resulted in CC release | increased the levels of p-Drp1^S616 |
